In ChEMBL document CHEMBL3352679, “Structure and evaluation of antibacterial and antitubercular properties of new basic and heterocyclic 3-formylrifamycin SV derivatives obtained via 'click chemistry' approach” (Eur J Med Chem, 2014):
In brackets after ≈: the same amount, converted by molar mass.

Experiments:
[1] = Solubility in water at pH 7 and 25 degC by UV-vis spectrophotometry; assay type: physicochemical
[2] = system: Staphylococcus epidermidis; assay: Antibacterial activity against Staphylococcus epidermidis ATCC 12228 after 18 hrs by serial microdilution method; assay type: functional; settings: ATCC 12228, 18 h
[3] = system: Salmonella enterica subsp. enterica serovar Abony; assay: Antibacterial activity against Salmonella abony NCTC 6017 after 18 hrs by serial microdilution method; assay type: functional; settings: NCTC 6017, 18 h
[4] = Octanol-water partition coefficient, log P of the compound; assay type: physicochemical
[5] = system: Escherichia coli; assay: Antibacterial activity against Escherichia coli ATCC 10538 after 18 hrs by serial microdilution method; assay type: functional; settings: ATCC 10538, 18 h
[6] = system: Staphylococcus aureus; assay: Antibacterial activity against Staphylococcus aureus ATCC 25923 after 18 hrs by serial microdilution method; assay type: functional; settings: ATCC 25923, 18 h
[7] = system: Trichophyton rubrum; assay: Antifungal activity against Trichophyton rubrum ATCC 28188 after 18 hrs by serial microdilution method; assay type: functional; settings: ATCC 28188, 18 h
[8] = system: Staphylococcus aureus; assay: Antibacterial activity against Staphylococcus aureus ATCC 4163 after 18 hrs by serial microdilution method; assay type: functional; settings: ATCC 4163, 18 h
[9] = system: Enterococcus faecalis; assay: Antibacterial activity against Enterococcus faecalis ATCC 19433 after 18 hrs by serial microdilution method; assay type: functional; settings: ATCC 19433, 18 h
[10] = system: Staphylococcus epidermidis; assay: Antibacterial activity against Staphylococcus epidermidis ATCC 49134 after 18 hrs by serial microdilution method; assay type: functional; settings: ATCC 49134, 18 h
[11] = system: Candida albicans; assay: Antifungal activity against Candida albicans ATCC 10231 after 18 hrs by serial microdilution method; assay type: functional; settings: ATCC 10231, 18 h
[12] = system: Staphylococcus aureus; assay: Antibacterial activity against Staphylococcus aureus ATCC 6538 after 18 hrs by serial microdilution method; assay type: functional; settings: ATCC 6538, 18 h
[13] = system: Mycobacterium tuberculosis; assay: Antituberculosis activity against Mycobacterium tuberculosis H37Rv after 7 days by serial two fold dilution method; assay type: functional; settings: 168 h

| Structure (SMILES) | solubility [1] [µg/mL] | MIC [2] [µg/mL] | MIC [3] [µg/mL] | logP [4] | MIC [5] [µg/mL] | MIC [6] [µg/mL] | MIC [7] [µg/mL] | MIC [8] [µg/mL] | MIC [9] [µg/mL] | MIC [10] [µg/mL] | MIC [11] [µg/mL] | MIC [12] [µg/mL] | MIC [13] [µg/mL] |
| --- | --- | --- | --- | --- | --- | --- | --- | --- | --- | --- | --- | --- | --- |
| CO[C@H]1/C=C/O[C@@]2(C)Oc3c(C)c(O)c4c(O)c(c(CNCCCN5CCCC5)c(O)c4c3C2=O)NC(=O)/C(C)=C\C=C\[C@H](C)[C@H](O)[C@@H](C)[C@@H](O)[C@@H](C)[C@H](OC(C)=O)[C@@H]1C | 240 (≈ 286 µM) | 0.5 (≈ 0.597 µM) | > 1 | 2.04 | > 1 | 1 (≈ 1.19 µM) | > 1 | 0.5 (≈ 0.597 µM) | > 1 | 0.25 (≈ 0.298 µM) | > 1 | 0.5 (≈ 0.597 µM) | 0.5 (≈ 0.597 µM) |
| CO[C@H]1/C=C/O[C@@]2(C)Oc3c(C)c(O)c4c(O)c(c(CNC5CCN(Cc6ccccc6)CC5)c(O)c4c3C2=O)NC(=O)/C(C)=C\C=C\[C@H](C)[C@H](O)[C@@H](C)[C@@H](O)[C@@H](C)[C@H](OC(C)=O)[C@@H]1C | < 10 | 0.25 (≈ 0.278 µM) | > 1 | 3.25 | > 1 | 0.25 (≈ 0.278 µM) | > 1 | 0.25 (≈ 0.278 µM) | > 1 | 0.25 (≈ 0.278 µM) | > 1 | 0.25 (≈ 0.278 µM) | 0.005 (≈ 0.00556 µM) |
| CO[C@H]1/C=C/O[C@@]2(C)Oc3c(C)c(O)c4c(O)c(c(/C=N/N5CCN(C)CC5)c(O)c4c3C2=O)NC(=O)/C(C)=C\C=C\[C@H](C)[C@H](O)[C@@H](C)[C@@H](O)[C@@H](C)[C@H](OC(C)=O)[C@@H]1C [RIFAMPIN] | – | 0.004 (≈ 0.00486 µM) | > 1 | 1.66 | > 1 | 0.016 (≈ 0.0194 µM) | > 1 | 0.008 (≈ 0.00972 µM) | 1 (≈ 1.22 µM) | 0.004 (≈ 0.00486 µM) | > 1 | 0.008 (≈ 0.00972 µM) | 0.005 (≈ 0.00608 µM) |
| CCCc1cn(CCNCc2c3c(O)c4c(O)c(C)c5c(c4c2O)C(=O)[C@@](C)(O/C=C/[C@H](OC)[C@@H](C)[C@@H](OC(C)=O)[C@H](C)[C@H](O)[C@H](C)[C@@H](O)[C@@H](C)/C=C/C=C(/C)C(=O)N3)O5)nn1 | < 10 | 0.5 (≈ 0.579 µM) | > 1 | 2.14 | > 1 | > 1 | > 1 | 1 (≈ 1.16 µM) | > 1 | 0.5 (≈ 0.579 µM) | > 1 | 1 (≈ 1.16 µM) | 1 (≈ 1.16 µM) |
| CO[C@H]1/C=C/O[C@@]2(C)Oc3c(C)c(O)c4c(O)c(c(CNCCN(C)C)c(O)c4c3C2=O)NC(=O)/C(C)=C\C=C\[C@H](C)[C@H](O)[C@@H](C)[C@@H](O)[C@@H](C)[C@H](OC(C)=O)[C@@H]1C | 320 (≈ 401 µM) | 0.5 (≈ 0.627 µM) | > 1 | 1.48 | > 1 | > 1 | > 1 | 1 (≈ 1.25 µM) | > 1 | 0.5 (≈ 0.627 µM) | > 1 | 1 (≈ 1.25 µM) | > 1 |
| CO[C@H]1/C=C/O[C@@]2(C)Oc3c(C)c(O)c4c(O)c(c(C=O)c(O)c4c3C2=O)NC(=O)/C(C)=C\C=C\[C@H](C)[C@H](O)[C@@H](C)[C@@H](O)[C@@H](C)[C@H](OC(C)=O)[C@@H]1C | 100 (≈ 138 µM) | > 1 | > 1 | 1.71 | > 1 | > 1 | > 1 | > 1 | > 1 | > 1 | > 1 | > 1 | > 1 |
| CO[C@H]1/C=C/O[C@@]2(C)Oc3c(C)c(O)c4c(O)c(c(CNCCCn5ccnc5)c(O)c4c3C2=O)NC(=O)/C(C)=C\C=C\[C@H](C)[C@H](O)[C@@H](C)[C@@H](O)[C@@H](C)[C@H](OC(C)=O)[C@@H]1C | 330 (≈ 395 µM) | 0.5 (≈ 0.599 µM) | > 1 | 1.78 | > 1 | 1 (≈ 1.2 µM) | > 1 | 0.5 (≈ 0.599 µM) | > 1 | 0.25 (≈ 0.299 µM) | > 1 | 0.5 (≈ 0.599 µM) | 1 (≈ 1.2 µM) |
| CO[C@H]1/C=C/O[C@@]2(C)Oc3c(C)c(O)c4c(O)c(c(CNCCCN5CCN(CCCNCc6c7c(O)c8c(O)c(C)c9c(c8c6O)C(=O)[C@@](C)(O/C=C/[C@H](OC)[C@@H](C)[C@@H](OC(C)=O)[C@H](C)[C@H](O)[C@H](C)[C@@H](O)[C@@H](C)/C=C/C=C(/C)C(=O)N7)O9)CC5)c(O)c4c3C2=O)NC(=O)/C(C)=C\C=C\[C@H](C)[C@H](O)[C@@H](C)[C@@H](O)[C@@H](C)[C@H](OC(C)=O)[C@@H]1C | < 10 | > 1 | > 1 | 3.83 | > 1 | > 1 | > 1 | > 1 | > 1 | > 1 | > 1 | > 1 | > 1 |
| CO[C@H]1/C=C/O[C@@]2(C)Oc3c(C)c(O)c4c(O)c(c(CNCc5cn(CN6C(=O)c7ccccc7C6=O)nn5)c(O)c4c3C2=O)NC(=O)/C(C)=C\C=C\[C@H](C)[C@H](O)[C@@H](C)[C@@H](O)[C@@H](C)[C@H](OC(C)=O)[C@@H]1C | < 10 | 0.5 (≈ 0.517 µM) | > 1 | 2.24 | > 1 | > 1 | > 1 | 1 (≈ 1.03 µM) | > 1 | 0.5 (≈ 0.517 µM) | > 1 | 1 (≈ 1.03 µM) | 0.25 (≈ 0.259 µM) |
| CO[C@H]1/C=C/O[C@@]2(C)Oc3c(C)c(O)c4c(O)c5c(c(O)c4c3C2=O)CN(Cc2cn(CN3C(=O)c4ccccc4C3=O)nn2)C(=N5)/C(C)=C\C=C\[C@H](C)[C@H](O)[C@@H](C)[C@@H](O)[C@@H](C)[C@H](OC(C)=O)[C@@H]1C | < 10 | > 1 | > 1 | 3.26 | > 1 | > 1 | > 1 | 1 (≈ 1.05 µM) | > 1 | > 1 | > 1 | > 1 | 0.5 (≈ 0.527 µM) |
| CCCCCc1cn(CCCNCc2c3c(O)c4c(O)c(C)c5c(c4c2O)C(=O)[C@@](C)(O/C=C/[C@H](OC)[C@@H](C)[C@@H](OC(C)=O)[C@H](C)[C@H](O)[C@H](C)[C@@H](O)[C@@H](C)/C=C/C=C(/C)C(=O)N3)O5)nn1 | < 10 | 0.5 (≈ 0.552 µM) | > 1 | 3.42 | > 1 | > 1 | > 1 | 1 (≈ 1.1 µM) | > 1 | 0.5 (≈ 0.552 µM) | > 1 | 1 (≈ 1.1 µM) | 0.5 (≈ 0.552 µM) |
| CO[C@H]1/C=C\O[C@@]2(C)Oc3c(C)c(O)c4c(O)c(c(CNC5CCN(Cc6ccccc6)CC5)c(O)c4c3C2=O)NC(=O)/C(C)=C\C=C/[C@H](C)[C@H](O)[C@@H](C)[C@@H](O)[C@@H](C)[C@H](OC(C)=O)[C@@H]1C | 150 (≈ 167 µM) | 0.06 (≈ 0.0667 µM) | – | 2.05 | – | 0.25 (≈ 0.278 µM) | – | 0.125 (≈ 0.139 µM) | – | 0.03 (≈ 0.0333 µM) | – | 0.125 (≈ 0.139 µM) | 0.005 (≈ 0.00556 µM) |
| CO[C@H]1/C=C/O[C@@]2(C)Oc3c(C)c(O)c4c(O)c(c(CNCCN5CCCC5)c(O)c4c3C2=O)NC(=O)/C(C)=C\C=C\[C@H](C)[C@H](O)[C@@H](C)[C@@H](O)[C@@H](C)[C@H](OC(C)=O)[C@@H]1C | 240 (≈ 291 µM) | 0.5 (≈ 0.607 µM) | 1 (≈ 1.21 µM) | 1.55 | 1 (≈ 1.21 µM) | 1 (≈ 1.21 µM) | 1 (≈ 1.21 µM) | 1 (≈ 1.21 µM) | 1 (≈ 1.21 µM) | 0.5 (≈ 0.607 µM) | 1 (≈ 1.21 µM) | 1 (≈ 1.21 µM) | 0.5 (≈ 0.607 µM) |
| CCCCCc1cn(CCCN2Cc3c4c(O)c5c(O)c(C)c6c(c5c3O)C(=O)[C@@](C)(O/C=C/[C@H](OC)[C@@H](C)[C@@H](OC(C)=O)[C@H](C)[C@H](O)[C@H](C)[C@@H](O)[C@@H](C)/C=C/C=C(/C)C2=N4)O6)nn1 | < 10 | > 1 | > 1 | 4.47 | > 1 | > 1 | > 1 | 1 (≈ 1.13 µM) | > 1 | > 1 | > 1 | > 1 | 1 (≈ 1.13 µM) |
| CCCc1cn(CCN2Cc3c4c(O)c5c(O)c(C)c6c(c5c3O)C(=O)[C@@](C)(O/C=C/[C@H](OC)[C@@H](C)[C@@H](OC(C)=O)[C@H](C)[C@H](O)[C@H](C)[C@@H](O)[C@@H](C)/C=C/C=C(/C)C2=N4)O6)nn1 | < 10 | > 1 | > 1 | 3.13 | > 1 | > 1 | > 1 | 1 (≈ 1.18 µM) | > 1 | > 1 | > 1 | > 1 | 1 (≈ 1.18 µM) |
